Experimental data taken from PMC11714206, “Massively Parallel Screening of Toll/Interleukin‐1 Receptor (TIR)‐Derived Peptides Reveals Multiple Toll‐Like Receptors (TLRs)‐Targeting Immunomodulatory Peptides” (Advanced Science, 2024).
“And” between values parts separate entries of the source, which are not always exact repeats. Equal entries are not always repeated. Each block holds one sequence with its values, some of them ahead of it.

Molecular target: T1, MyD88^TIR (Homo sapiens, UniProt Q99836)
T1 construct: MyD88 (residues 148–296); 6xHis; made in house; host or cells: E. coli BL21 (DE3)
T1 sequence (Q99836 148-296): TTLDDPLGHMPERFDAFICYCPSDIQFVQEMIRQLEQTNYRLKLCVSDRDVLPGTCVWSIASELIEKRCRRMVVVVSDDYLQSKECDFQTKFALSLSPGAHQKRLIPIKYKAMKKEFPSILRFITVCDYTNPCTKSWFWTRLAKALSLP
Experiment: T‐Surf phage library (P8 and P3) selection against MyD88^TIR, four rounds, NGS read counts
Assay type: binding
Settings: for P3_MyD88 Rank (after) / P3_MyD88 Rank (before): P3 library; for P8_MyD88 Rank (after) / P8_MyD88 Rank (before): P8 library; for Population: 4th round of selection against MyD88 TIR, share of NGS reads
How it was run: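 Coat TIR domain 5 µg mL^−1 overnight; block 0.2% BSA/PBS 1 h, 4 °C; add phage library 1 h, RT; wash ×4 PBS/0.5% Tween‐20; elute 100 mM HCl, neutralize Tris; amplify in TG1, PEG‐precipitate. Repeat to round 4; barcode PCR, NovaSeq, count reads.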

[1] = P8_MyD88: rank by NGS read count after grouping
[2] = P8_MyD88: rank by NGS read count before grouping
[3] = P3_MyD88: rank by count after grouping
[4] = P3_MyD88: rank by count before grouping
[5] = selection against MyD88 TIR, rank by count after grouping
[6] = selection against MyD88 TIR, rank by count before grouping
[7] = 4R selection against MyD88, rank after grouping
[8] = 4R selection against MyD88, rank before grouping
[9] = P8_MyD88: rank by count after grouping
[10] = P8_MyD88: rank by count before grouping
[11] = P8_MyD88 pool: P8 T-Surf phage library
[12] = selection against MyD88, rank by count after grouping
[13] = selection against MyD88, rank by count before grouping
[14] = selection against MyD88, rank after grouping
[15] = selection against MyD88, rank before grouping
[16] = P3_MyD88 pool: P3 T-Surf phage library

Sequence: LGYHWVDWGCFVGIAD
Rank (after) [1]: 958
Rank (before) [2]: 3232

Sequence: YTALTNSGFHTFRVNV
P3_MyD88 Rank (after) [7]: 659
P3_MyD88 Rank (before) [8]: 1668

Sequence: QYLRWPEDFQDVGWFL
Rank (after) [9]: 144
Rank (before) [10]: 161
Population [11]: 0.00925%

Sequence: DWVWDYLLQSGRPSG
Rank (after) [1]: 932
Rank (before) [2]: 2451

Sequence: SSYRESLRRLPALSKK
P3_MyD88 Rank (after) [12]: 739
P3_MyD88 Rank (before) [13]: 3266

Sequence: DYASYDDNDYYWVTHVLLRHL
Rank (after) [9]: 439
Rank (before) [10]: 1058

Sequence: WFLTAFRMAMDQVADT
Rank (after) [9]: 95
Rank (before) [10]: 100
Population [11]: 0.025%

Sequence: IVQALWSKVHHSLTLF
Rank (after) [9]: 145
Rank (before) [10]: 157
Population [11]: 0.01%

Sequence: DHHLDLPRGKALKPEMLG
P3_MyD88 Rank (after) [5]: 200
P3_MyD88 Rank (before) [6]: 2046

Sequence: IQCRNATSPAALLIGR
P8_MyD88 Rank (after) [7]: 651
P8_MyD88 Rank (before) [8]: 3652

Sequence: SSRWALDELVHIMQAL
Rank (after) [9]: 161
Rank (before) [10]: 179
Population [11]: 0.00771%

Sequence: SSFREGLWRLLELSKK
Population [16]: 0.00466% and 0.00437% and 0.00408% and 0.00378% and 0.00349% and 0.0032% and 0.00291%

Sequence: DPQDTDWFYERLVSMF
P8_MyD88 Rank (after) [14]: 499
P8_MyD88 Rank (before) [15]: 2976

Sequence: YAASMRWFGELAKIVG
P8_MyD88 Rank (after) [14]: 558
P8_MyD88 Rank (before) [15]: 1710

Sequence: DSLFWDRLLYSLHVTD
Population [11]: 0.00732%

Sequence: GEDTRYTFTGHLHRYLVQRGV
P3_MyD88 Rank (after) [5]: 240
P3_MyD88 Rank (before) [6]: 917

Sequence: LVAHEITPSLFKAIKE
Rank (after) [3]: 161
Rank (before) [4]: 676

Sequence: YLKWGSPWFWDRLRFGPIGQ
P3_MyD88 Rank (after) [14]: 568
P3_MyD88 Rank (before) [15]: 1571

Sequence: FLSYRALEKRFGPLVQ
P3_MyD88 Rank (after) [14]: 536
P3_MyD88 Rank (before) [15]: 1378

Sequence: YAASPWWLVELVQIVG
P8_MyD88 Rank (after) [12]: 752
P8_MyD88 Rank (before) [13]: 1758

Sequence: CALDELLHILHARELF
P8_MyD88 Rank (after) [12]: 724
P8_MyD88 Rank (before) [13]: 1346

Sequence: EPPGLDWVYERLVVLF
Rank (after) [1]: 927
Rank (before) [2]: 3199

The remaining lines, values ahead:

Rank (after) [1]: 909
Rank (before) [2]: 2712
Sequence: DPQDLVWFYERPVSIF

Rank (after) [3]: 461
Rank (before) [4]: 2919
Sequence: ISYRQGRWRLLELSKK

P3_MyD88 Rank (after) [5]: 282
P3_MyD88 Rank (before) [6]: 1431
Sequence: YLKWGYPRFWDRQRFP

P8_MyD88 Rank (after) [7]: 601
P8_MyD88 Rank (before) [8]: 2624
Sequence: DPPVLEWFYESLFSQM

Rank (after) [1]: 1011
Rank (before) [2]: 3504
Sequence: PQELECIYKRLVSLIL

Rank (after) [3]: 175
Rank (before) [4]: 1238
Sequence: NELCMCGAAKRIAWW

P3_MyD88 Rank (after) [12]: 700
P3_MyD88 Rank (before) [13]: 3485
Sequence: NQWRNALIAAVNLSGC

P3_MyD88 Rank (after) [7]: 629
P3_MyD88 Rank (before) [8]: 2693
Sequence: RSFREGLWRLLELRKK

P3_MyD88 Rank (after) [14]: 518
P3_MyD88 Rank (before) [15]: 2289
Sequence: LVAHEISKKLKNFPTI

Rank (after) [9]: 188
Rank (before) [10]: 237
Sequence: TEPADTAFWDALWNKL

P3_MyD88 Rank (after) [5]: 274
P3_MyD88 Rank (before) [6]: 2702
Sequence: PEKIMAAKMRLSITL

Population [16]: 0.00437%
Sequence: DHHLDLPRGKAIKREILG

Rank (after) [3]: 149
Rank (before) [4]: 3467
Sequence: NQCRNALTAAANLSGC

P8_MyD88 Rank (after) [5]: 205
P8_MyD88 Rank (before) [6]: 304
Sequence: AHDELWVLRYLLPTLE

P8_MyD88 Rank (after) [12]: 704
P8_MyD88 Rank (before) [13]: 2449
Sequence: DWVWDYLLPIWKAQR

Rank (after) [3]: 113
Rank (before) [4]: 1321
Sequence: KMQKWKDALYEAPNL

Population [16]: 0.00378%
Sequence: YTALTAAANLSGW

Rank (after) [9]: 401
Rank (before) [10]: 3015
Sequence: DPQELDGFYERLVSLF

Rank (after) [3]: 116
Rank (before) [4]: 973
Sequence: DTKLKKGESIAPERLP

Rank (after) [3]: 422
Rank (before) [4]: 1485
Sequence: YAFTGHFQRYLVQRGV

Rank (after) [9]: 452
Rank (before) [10]: 2660
Sequence: DPQVRDWFYERAVSLF

Rank (after) [9]: 453
Rank (before) [10]: 2884
Sequence: DPQDLEWFYERLVSLIP

Rank (after) [3]: 164
Rank (before) [4]: 3465
Sequence: NQCRNFLTAAANLSGW

P3_MyD88 Rank (after) [7]: 646
P3_MyD88 Rank (before) [8]: 3408
Sequence: NELVHVWRSKANRLVG

Rank (after) [9]: 467
Rank (before) [10]: 2944
Sequence: DPQDLQSLYEGLVSLV

P8_MyD88 Rank (after) [7]: 630
P8_MyD88 Rank (before) [8]: 3283
Sequence: LGYHWIDWENLVGFED

P3_MyD88 Rank (after) [5]: 206
P3_MyD88 Rank (before) [6]: 1688
Sequence: YTALTNSGVHTFLDND

P3_MyD88 Rank (after) [5]: 266
P3_MyD88 Rank (before) [6]: 3181
Sequence: SSFREGLWRLLKLNKK
